# Reference: PubChem BioAssay AID2060892 (Molecular Pharmacology Branch, DTP, NCI, 2025)
# Test system: HOP-62 complex spheroids with HUVEC/MSC, viability
# Assay: Anticancer human tumor HOP-62 cell line growth inhibition [RAS];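 further: spheroids exposed to agents for seven days before readout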;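 on viability, T/C: 100% = DMSO vehicle control viability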
# Settings: for IC50: curve of first compound; for viability, T/C: stronger effect = lower value
# Summary of the method: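 Multi-cell-type spheroids: tumor cells plus HUVEC endothelial cells and mesenchymal stem cells. RAS-pathway inhibitors were combined with targeted agents, each dosed in half-log steps down from clinical Cmax, or from 10 microM when Cmax was unknown.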
# [1] = second compound 0.000949 µM, first compound 0.0316 µM
# [2] = second compound 0.000949 µM, first compound 0.1 µM
# [3] = second compound 0.000949 µM, first compound 0.316 µM
# [4] = second compound 0.000949 µM, first compound 1 µM
# [5] = second compound 0.000949 µM, first compound 3.16 µM
# [6] = second compound 0.000949 µM, first compound 10 µM
# [7] = second compound 0.003 µM, first compound 0.0316 µM
# [8] = second compound 0.003 µM, first compound 0.1 µM
# [9] = second compound 0.003 µM, first compound 0.316 µM
# [10] = second compound 0.003 µM, first compound 1 µM
# [11] = second compound 0.003 µM, first compound 3.16 µM
# [12] = second compound 0.003 µM, first compound 10 µM
# [13] = second compound 0.00949 µM, first compound 0.0316 µM
# [14] = second compound 0.00949 µM, first compound 0.1 µM
# [15] = second compound 0.00949 µM, first compound 0.316 µM
# [16] = second compound 0.00949 µM, first compound 1 µM
# [17] = second compound 0.00949 µM, first compound 3.16 µM
# [18] = second compound 0.00949 µM, first compound 10 µM
# [19] = second compound 0.03 µM, first compound 0.0316 µM
# [20] = second compound 0.03 µM, first compound 0.1 µM
# [21] = second compound 0.03 µM, first compound 0.316 µM
# [22] = second compound 0.03 µM, first compound 1 µM
# [23] = second compound 0.03 µM, first compound 3.16 µM
# [24] = second compound 0.03 µM, first compound 10 µM
# [25] = second compound 0.0949 µM, first compound 0.0316 µM
# [26] = second compound 0.0949 µM, first compound 0.1 µM
# [27] = second compound 0.0949 µM, first compound 0.316 µM
# [28] = second compound 0.0949 µM, first compound 1 µM
# [29] = second compound 0.0949 µM, first compound 3.16 µM
# [30] = second compound 0.0949 µM, first compound 10 µM
# [31] = second compound 0.3 µM, first compound 0.0316 µM
# [32] = second compound 0.3 µM, first compound 0.1 µM
# [33] = second compound 0.3 µM, first compound 0.316 µM
# [34] = second compound 0.3 µM, first compound 1 µM
# [35] = second compound 0.3 µM, first compound 3.16 µM
# [36] = second compound 0.3 µM, first compound 10 µM
smiles,measurement,setting,value
CC1(O)CCCC1n1c(=O)c(C(F)F)cc2cnc(NC3CCN(S(C)(=O)=O)CC3)nc21 (centres undefined) + CCn1c(-c2cc(N3CCN(C)CC3)cnc2C(C)OC)c2c3cc(ccc31)-c1csc(n1)CC(NC(=O)C1CC1C)C(=O)N1CCCC(N1)C(=O)OCC(C)(C)C2,IC50,second compound 0.000949 µM,5.05 µM
same,IC50,second compound 0.003 µM,3.77 µM
same,IC50,second compound 0.00949 µM,1.06 µM
same,IC50,second compound 0.03 µM,< 0.0316 µM
same,IC50,second compound 0.0949 µM,< 0.0316 µM
same,IC50,second compound 0.3 µM,< 0.0316 µM
same,"viability, T/C",[1],104%
same,"viability, T/C",[2],87.2%
same,"viability, T/C",[3],57.5%
same,"viability, T/C",[4],80.3%
same,"viability, T/C",[5],83.6%
same,"viability, T/C",[6],2.49%
same,"viability, T/C",[7],87.4%
same,"viability, T/C",[8],65.2%
same,"viability, T/C",[9],58.9%
same,"viability, T/C",[10],62.3%
same,"viability, T/C",[11],61.1%
same,"viability, T/C",[12],2.49%
same,"viability, T/C",[13],69.7%
same,"viability, T/C",[14],53.8%
same,"viability, T/C",[15],57.8%
same,"viability, T/C",[16],46.5%
same,"viability, T/C",[17],40.6%
same,"viability, T/C",[18],2.35%
same,"viability, T/C",[19],49.7%
same,"viability, T/C",[20],44.1%
same,"viability, T/C",[21],36.5%
same,"viability, T/C",[22],49.3%
same,"viability, T/C",[23],23.2%
same,"viability, T/C",[24],2.84%
same,"viability, T/C",[25],32.5%
same,"viability, T/C",[26],33.9%
same,"viability, T/C",[27],33.8%
same,"viability, T/C",[28],37.1%
same,"viability, T/C",[29],19.5%
same,"viability, T/C",[30],3.11%
same,"viability, T/C",[31],36.9%
same,"viability, T/C",[32],34.2%
same,"viability, T/C",[33],34.3%
same,"viability, T/C",[34],30.9%
same,"viability, T/C",[35],20.8%
same,"viability, T/C",[36],3.29%
CCC(CC)c1cc(NC2CCC(N)C2)n2nccc2n1 (centres undefined) + CCn1c(-c2cc(N3CCN(C)CC3)cnc2C(C)OC)c2c3cc(ccc31)-c1csc(n1)CC(NC(=O)C1CC1C)C(=O)N1CCCC(N1)C(=O)OCC(C)(C)C2,IC50,second compound 0.000949 µM,2.04 µM
same,IC50,second compound 0.003 µM,1.89 µM
same,IC50,second compound 0.00949 µM,1.56 µM
same,IC50,second compound 0.03 µM,1.27 µM
same,IC50,second compound 0.0949 µM,1.02 µM
same,IC50,second compound 0.3 µM,0.0316 µM
same,"viability, T/C",[1],116%
same,"viability, T/C",[2],125%
same,"viability, T/C",[3],94.3%
same,"viability, T/C",[4],128%
same,"viability, T/C",[5],9.48%
same,"viability, T/C",[6],1.8%
same,"viability, T/C",[7],91.4%
same,"viability, T/C",[8],99.2%
same,"viability, T/C",[9],91.5%
same,"viability, T/C",[10],121%
same,"viability, T/C",[11],8.75%
same,"viability, T/C",[12],1.01%
same,"viability, T/C",[13],74.9%
same,"viability, T/C",[14],63.3%
same,"viability, T/C",[15],80%
same,"viability, T/C",[16],93.5%
same,"viability, T/C",[17],5.73%
same,"viability, T/C",[18],0.77%
same,"viability, T/C",[19],54%
same,"viability, T/C",[20],56.3%
same,"viability, T/C",[21],57.9%
same,"viability, T/C",[22],81.2%
same,"viability, T/C",[23],2.62%
same,"viability, T/C",[24],0.93%
same,"viability, T/C",[25],40.1%
same,"viability, T/C",[26],49.5%
same,"viability, T/C",[27],52.8%
same,"viability, T/C",[28],61.5%
same,"viability, T/C",[29],2.26%
same,"viability, T/C",[30],2.34%
same,"viability, T/C",[31],33.1%
same,"viability, T/C",[32],43.1%
same,"viability, T/C",[33],47.9%
same,"viability, T/C",[34],50.8%
same,"viability, T/C",[35],6.58%
same,"viability, T/C",[36],1.42%
